Reference: ChEMBL document CHEMBL1142043, “Potent and selective [2-imidazol-1-yl-2-(6-alkoxy-naphthalen-2-yl)-1-methyl-ethyl]-dimethyl-amines as retinoic acid metabolic blocking agents (RAMBAs)” (Bioorg Med Chem Lett, 2005)

Key:
[1] = Potency towards AT 6.1 cell; type: functional, Rattus norvegicus
Cytochrome P450 26A1 = biological target: T1, Cytochrome P450 26A1 (Homo sapiens, UniProt O43174); assay: Potency towards cytochrome P 450 26 enzyme activity
T1 sequence (O43174 whole entry): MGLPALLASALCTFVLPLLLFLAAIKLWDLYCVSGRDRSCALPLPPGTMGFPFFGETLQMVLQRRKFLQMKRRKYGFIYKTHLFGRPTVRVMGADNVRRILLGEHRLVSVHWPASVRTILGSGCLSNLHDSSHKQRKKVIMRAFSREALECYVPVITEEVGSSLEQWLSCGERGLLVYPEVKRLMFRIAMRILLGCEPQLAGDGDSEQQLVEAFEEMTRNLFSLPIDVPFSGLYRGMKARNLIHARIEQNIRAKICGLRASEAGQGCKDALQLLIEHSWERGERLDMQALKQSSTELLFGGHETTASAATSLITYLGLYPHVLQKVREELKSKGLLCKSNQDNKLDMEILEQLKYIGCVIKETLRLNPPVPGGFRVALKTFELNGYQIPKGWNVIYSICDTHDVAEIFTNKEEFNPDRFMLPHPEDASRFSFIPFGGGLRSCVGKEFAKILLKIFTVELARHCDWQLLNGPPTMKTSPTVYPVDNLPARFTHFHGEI

T47D [2] = assay: Potency towards T47D cell; type: functional, cell-based, Rattus norvegicus; conditions: Homo sapiens
T47D [3] = assay: Potency towards T47D cell; Inactive at 1 uM; type: functional
[4] = Potency towards AT 6.1 cell; Inactive at 250 nM; type: functional, Rattus norvegicus
Rattus norvegicus = assay: Potency (30 mg/kg, bid) was determined towards AT 6.1 cell; type: organism-based

| Compound | IC50 (Cytochrome P450 26A1) | further results |
| --- | --- | --- |
| CC(C(c1ccc2cc(OCC(C)(C)C(=O)N(C)C)ccc2c1)n1ccnc1)N(C)C (stereo unspecified) | – | IC50 [1]: 0.25 µM |
| CC(C(c1ccc2cc(OCc3ccc(CC(=O)O)cc3)ccc2c1)n1ccnc1)N(C)C (stereo unspecified) | 0.025 µM | – |
| CC(C(c1ccc2cc(OCc3cccc(C(=O)O)c3)ccc2c1)n1ccnc1)N(C)C (stereo in doubt; syn) | 0.0035 µM | – |
| CC(C(c1ccc2cc(OCc3ccc(C(=O)O)cc3)ccc2c1)n1ccnc1)N(C)C (stereo in doubt; syn) | 0.0033 µM | IC50 [1]: < 0.1 µM; IC50 (T47D [2]): < 0.1 µM |
| CNC(=O)C(C)(C)COc1ccc2cc(C(C(C)N(C)C)n3ccnc3)ccc2c1 (stereo unspecified) | 0.054 µM | IC50 (T47D [3]): Inactive at 1 uM; IC50 [4]: Inactive at 1 uM |
| CNC(=O)c1cccc(COc2ccc3cc(C(C(C)N(C)C)n4ccnc4)ccc3c2)c1 (stereo unspecified) | 0.037 µM | IC50 (T47D [3]): Inactive at 1 uM; IC50 [1]: 0.25 µM |
| CC(C(c1ccc2cc(OCc3ccc(OC(C)(C)C)cc3)ccc2c1)n1ccnc1)N(C)C (stereo in doubt; anti) | 0.086 µM | – |
| CC(C(c1ccc2cc(OCc3ccc(C#N)cc3)ccc2c1)n1ccnc1)N(C)C (stereo in doubt; anti) | 0.071 µM | – |
| COC(=O)COc1ccc(COc2ccc3cc(C(C(C)N(C)C)n4ccnc4)ccc3c2)cc1 (stereo in doubt; anti) | 0.153 µM | – |
| COC(=O)c1cccc(COc2ccc3cc(C(C(C)N(C)C)n4ccnc4)ccc3c2)c1 (stereo in doubt; syn) | 0.007 µM | – |
| CC(C(c1ccc2cc(OCc3cccc(C(=O)O)c3)ccc2c1)n1ccnc1)N(C)C (stereo in doubt; anti) | 0.0063 µM | – |
| Clc1cccc(C(c2ccc3[nH]cnc3c2)n2ccnc2)c1 (stereo unspecified) | – | inhibition (Rattus norvegicus): 90% |
| CC(C(c1ccc2cc(OCc3cccc(C(N)=O)c3)ccc2c1)n1ccnc1)N(C)C (stereo unspecified) | – | IC50 (T47D [3]): Inactive at 1 uM; IC50 [4]: Inactive at 1 uM |
| CC(C(c1ccc2cc(OCC(C)(C)C(N)=O)ccc2c1)n1ccnc1)N(C)C (stereo unspecified) | 0.047 µM | IC50 [4]: Inactive at 250 nM; IC50 (T47D [2]): 0.25 µM |
| COC(=O)c1cccc(COc2ccc3cc(C(C(C)N(C)C)n4ccnc4)ccc3c2)c1 (stereo in doubt; anti) | 0.018 µM | – |
| COC(=O)c1ccc(COc2ccc3cc(C(C(C)N(C)C)n4ccnc4)ccc3c2)cc1 (stereo in doubt; syn) | 0.016 µM | – |
| CC(C(c1ccc2cc(OCC(C)(C)C(=O)O)ccc2c1)n1ccnc1)N(C)C (stereo unspecified) | – | IC50 [1]: 0.3 µM; IC50 (T47D [2]): 0.125 µM |
| CC(C(c1ccc2cc(OCc3cccc(C(=O)N(C)C)c3)ccc2c1)n1ccnc1)N(C)C (stereo unspecified) | 0.0144 µM | IC50 (T47D [3]): Inactive at 1 uM |
| COC(=O)COc1ccc(COc2ccc3cc(C(C(C)N(C)C)n4ccnc4)ccc3c2)cc1 (stereo in doubt; syn) | 0.019 µM | – |
| COC(=O)c1ccc(COc2ccc3cc(C(C(C)N(C)C)n4ccnc4)ccc3c2)cc1 (stereo in doubt; anti) | 0.085 µM | – |
| CC(C(c1ccc2cc(OCc3ccc(OC(C)(C)C)cc3)ccc2c1)n1ccnc1)N(C)C (stereo in doubt; syn) | 0.034 µM | – |
| CC(C(c1ccc2cc(OCc3ccc(C#N)cc3)ccc2c1)n1ccnc1)N(C)C (stereo in doubt; syn) | 0.006 µM | – |
| CC(C(c1ccc2cc(OCC(=O)O)ccc2c1)n1ccnc1)N(C)C (stereo unspecified) | 0.335 µM | – |
| CC(C(c1ccc2cc(OCc3ccc(OCC(=O)O)cc3)ccc2c1)n1ccnc1)N(C)C (stereo unspecified) | 0.008 µM | – |
| CC(C(c1ccc2cc(OCc3ccc(C(=O)O)cc3)ccc2c1)n1ccnc1)N(C)C (stereo in doubt; anti) | 0.012 µM | – |
